Reference: PMC12251305 (Molecules, 2025)
Like-named read-outs stand apart in the source and are kept apart here.

How the values were obtained:
MOR [1] = target: T1, MOR (Homo sapiens, UniProt P35372); assay: Radioligand competition binding at MOR
DOR [2] = target: T2, DOR (Homo sapiens, UniProt P41143); assay: Radioligand competition binding at DOR
KOR [3] = target: T3, KOR (Homo sapiens, UniProt P41145); assay: biochemical; type: binding
hNPFF1-R = target: T4, hNPFF1-R (Homo sapiens, UniProt Q9GZQ6); assay: Radioligand competition binding at NPFF1-R
T4 construct: expressed in transfected cells; host or cells: CHO cells

hNPFF2-R = target: T5, hNPFF2-R (Homo sapiens, UniProt Q9Y5X5); assay: Radioligand competition binding at NPFF2-R
T5 construct: expressed in transfected cells; host or cells: CHO cells (membranes)

MOR [4] = target: T1, MOR; assay: [35S]GTPγS functional assay (agonist mode) at MOR; type: biochemical
DOR [5] = target: T2, DOR; assay: [35S]GTPγS functional assay (agonist mode) at DOR; type: biochemical
KOR [6] = target: T3, KOR; assay: [35S]GTPγS functional assay (agonist mode) at KOR; type: biochemical
C57BL/6J mice [7] = assay: Antinociception assay (55 °C warm water tail withdrawal assay); type: in vivo, mouse; settings: 30 nmol i.c.v., 55 °C
C57BL/6J mice [8] = assay: Anti-hyperalgesia assay (48 °C warm water tail withdrawal assay, NPFF-induced hyperalgesia); type: in vivo, mouse; settings: 30 nmol i.c.v. two hours before NPFF 30 nmol i.c.v.
C57BL/6J mice [9] = assay: Respiration testing (CLAMS); type: in vivo, mouse; settings: 100 nmol i.c.v., 90 min
C57BL/6J mice [10] = assay: Locomotor testing (CLAMS); type: in vivo, mouse; settings: 100 nmol i.c.v., 90 min
C57BL/6J mice [11] = assay: Acute antinociceptive tolerance assay (55 °C warm water tail withdrawal); type: in vivo, mouse; settings: i.c.v.
C57BL/6J mice [12] = assay: Excreta assay (intestinal transit); settings: 90 min
[13] = GTPγS Kappa Agonist Functional Assay EC50 (Figure S2 curve fit), Figure S2, axis Log(M), U69,593 run beside each compound
[14] = [35S]GTPγS KOR EC50 ± SEM, agonist mode, standard U-69,593
[15] = read-out: Receptor Binding, Ki ± SEM NPFF1-R
[16] = [3H]EYF, transfected CHO cell membranes, read-out: Receptor Binding, Ki ± SEM NPFF2-R
[17] = read-out: Receptor Binding, Ki ± SEM DOR
[18] = GTPγS Delta Agonist Functional Assay EC50 (Figure S2 curve fit), Figure S2, axis Log(M), DPDPE run beside each compound
[19] = [35S]GTPγS DOR EC50 ± SEM, agonist mode, standard DPDPE
[20] = GTPγS Mu Agonist Functional Assay EC50 (Figure S2 curve fit)

T3 sequence (P41145 whole entry): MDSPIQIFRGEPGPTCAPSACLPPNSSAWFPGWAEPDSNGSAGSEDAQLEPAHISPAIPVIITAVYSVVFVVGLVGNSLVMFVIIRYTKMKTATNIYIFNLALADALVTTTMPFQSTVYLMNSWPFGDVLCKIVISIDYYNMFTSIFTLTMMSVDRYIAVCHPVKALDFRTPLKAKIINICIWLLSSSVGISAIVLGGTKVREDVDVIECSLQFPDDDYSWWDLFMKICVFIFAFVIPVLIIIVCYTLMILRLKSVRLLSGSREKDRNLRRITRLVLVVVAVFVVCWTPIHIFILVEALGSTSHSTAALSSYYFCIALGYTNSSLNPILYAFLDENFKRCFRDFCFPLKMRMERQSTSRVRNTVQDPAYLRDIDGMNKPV
T2 sequence (P41143 whole entry): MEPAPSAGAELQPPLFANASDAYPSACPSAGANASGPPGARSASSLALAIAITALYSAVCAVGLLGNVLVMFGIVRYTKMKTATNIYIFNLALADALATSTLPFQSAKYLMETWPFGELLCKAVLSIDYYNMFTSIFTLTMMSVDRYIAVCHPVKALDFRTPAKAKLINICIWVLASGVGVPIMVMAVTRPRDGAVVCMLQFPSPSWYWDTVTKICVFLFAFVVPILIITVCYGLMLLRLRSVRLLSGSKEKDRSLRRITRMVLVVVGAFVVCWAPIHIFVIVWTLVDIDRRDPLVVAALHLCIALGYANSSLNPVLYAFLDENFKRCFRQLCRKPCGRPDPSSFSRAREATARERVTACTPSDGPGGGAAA
T5 sequence (Q9Y5X5 whole entry): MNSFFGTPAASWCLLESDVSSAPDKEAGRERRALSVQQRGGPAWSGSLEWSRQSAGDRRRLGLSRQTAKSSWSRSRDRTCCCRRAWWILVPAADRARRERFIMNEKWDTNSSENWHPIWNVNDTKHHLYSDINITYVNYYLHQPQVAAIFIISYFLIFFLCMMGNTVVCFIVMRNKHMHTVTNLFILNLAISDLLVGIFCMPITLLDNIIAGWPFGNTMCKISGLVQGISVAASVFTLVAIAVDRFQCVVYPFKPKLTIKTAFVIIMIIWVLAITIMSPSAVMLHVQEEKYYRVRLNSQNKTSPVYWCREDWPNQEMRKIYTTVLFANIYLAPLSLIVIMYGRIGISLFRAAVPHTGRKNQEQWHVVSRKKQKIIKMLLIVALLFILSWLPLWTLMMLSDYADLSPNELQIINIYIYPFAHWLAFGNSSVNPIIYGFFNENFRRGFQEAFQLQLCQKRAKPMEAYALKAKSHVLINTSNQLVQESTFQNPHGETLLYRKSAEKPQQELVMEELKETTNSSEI
T4 sequence (Q9GZQ6 whole entry): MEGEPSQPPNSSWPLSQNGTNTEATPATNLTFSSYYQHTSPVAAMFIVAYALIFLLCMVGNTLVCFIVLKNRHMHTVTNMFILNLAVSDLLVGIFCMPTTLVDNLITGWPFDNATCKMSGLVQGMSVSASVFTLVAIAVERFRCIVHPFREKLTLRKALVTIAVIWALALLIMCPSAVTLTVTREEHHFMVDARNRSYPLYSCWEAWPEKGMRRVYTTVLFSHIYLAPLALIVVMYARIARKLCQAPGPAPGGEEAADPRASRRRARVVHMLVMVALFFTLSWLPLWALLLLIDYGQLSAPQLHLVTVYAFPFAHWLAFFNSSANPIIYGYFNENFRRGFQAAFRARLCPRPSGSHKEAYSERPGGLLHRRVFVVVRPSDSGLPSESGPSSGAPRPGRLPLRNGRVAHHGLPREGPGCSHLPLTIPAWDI
T1 sequence (P35372 whole entry): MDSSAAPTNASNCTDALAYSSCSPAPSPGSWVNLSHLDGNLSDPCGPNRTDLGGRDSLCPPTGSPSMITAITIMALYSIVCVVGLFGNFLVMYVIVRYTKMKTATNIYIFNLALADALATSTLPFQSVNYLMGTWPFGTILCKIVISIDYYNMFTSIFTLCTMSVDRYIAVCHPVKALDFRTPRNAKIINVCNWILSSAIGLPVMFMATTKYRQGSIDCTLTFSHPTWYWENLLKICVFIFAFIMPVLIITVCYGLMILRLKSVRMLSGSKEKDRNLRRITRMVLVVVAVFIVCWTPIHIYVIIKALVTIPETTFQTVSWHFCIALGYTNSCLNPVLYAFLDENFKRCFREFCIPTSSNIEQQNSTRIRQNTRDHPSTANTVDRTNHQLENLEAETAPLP

SMILES	Ki (MOR [1]) [nM]	Ki (KOR [3]) [nM]	EC50 (KOR [6]; [13]) [M]	EC50 (KOR [6]; [14]) [M]	antinociceptive activity over time (screening) (C57BL/6J mice [7])	prevention of NPFF-induced hyperalgesia (screening) (C57BL/6J mice [8])	Ki (hNPFF1-R; [15]) [nM]	Ki (hNPFF2-R; [16]) [nM]	Ki (DOR [2]; [17]) [nM]	EC50 (MOR [4]; [35S]GTPγS MOR EC50 ± SEM) [nM]	EC50 (DOR [5]; [18]) [M]	EC50 (DOR [5]; [19]) [M]	also measured
CC(C)C[C@H](NC(=O)[C@@H](N)Cc1ccccc1)C(=O)N[C@@H](Cc1ccccc1)C(=O)N[C@@H](CCC(N)=O)C(=O)N1CCC[C@H]1C(=O)N[C@@H](CCC(N)=O)C(=O)N[C@@H](CCCN=C(N)N)C(=O)N[C@@H](Cc1ccccc1)C(N)=O [NPFF, neuropeptide FF, reference compound]	> 10000	> 10000											Ki (DOR [2]): > 10000 nM
N=C(N)Nc1ccc(C(=C2CCN(Cc3ccccc3)CC2)c2ccc(O)cc2)cc1 [Compound 14b, 1-(4-((1-Benzylpiperidin-4-ylidene)(4-hydroxyphenyl)methyl)phenyl)guanidine]		56.6 ± 3.8	1.36e-07	1.36e-07 ± 2.37e-08	displayed antinociception in vivo second only to 22b	more moderate, yet still statistically significant, effect							Ki (hNPFF1-R): 1980 ± 288 nM; Ki (hNPFF2-R): 4820 ± 1010 nM; Ki (MOR [1]; read-out: Receptor Binding, Ki ± SEM MOR): 313 ± 11 nM; Ki (DOR [2]): 6.46 ± 1.11 nM; EC50 (MOR [4]): 18600 nM; EC50 (DOR [5]; Figure S2, axis Log(M), DPDPE run beside each compound, read-out: GTPγS Delta Agonist Functional Assay EC50 (Figure S2 curve fit)): 2.27e-07 M; EC50 (DOR [5]; agonist mode, standard DPDPE, read-out: [35S]GTPγS DOR EC50 ± SEM): 2.27e-07 ± 1.25e-08 M
N=C(N)Nc1ccc(C(=C2CCN(Cc3ccccc3)CC2)c2cccc(O)c2)cc1 [Compound 13b, 1-(4-((1-Benzylpiperidin-4-ylidene)(3-hydroxyphenyl)methyl)phenyl)guanidine]	56.2 ± 7.5	30.6 ± 1.1	2.68e-07	2.68e-07 ± 3.19e-08	lacked any marked analgesic activity	greater anti-NPFF activity	605 ± 136	6020 ± 1150	1.67 ± 0.61	1440 ± 226	9.61e-09	9.62e-09 ± 1.27e-09	
N=C(N)Nc1cccc(C(=C2CCN(Cc3ccccc3)CC2)c2cccc(O)c2)c1 [Compound 13a, 1-(3-((1-Benzylpiperidin-4-ylidene)(3-hydroxyphenyl)methyl)phenyl)guanidine]	5.06 ± 0.21	2.82 ± 0.39	4.18e-08	4.18e-08 ± 4.9e-09	did not show statistically significant antinociceptive activity	more moderate, yet still statistically significant, effect	2180 ± 280	7080 ± 1260	0.481 ± 0.192	28.3 ± 2.5		2.41e-08 ± 2.5e-09	EC50 (MOR [4]; [20]): 28.3 nM
CN1CC[C@]23c4c5ccc(O)c4O[C@H]2[C@@H](O)C=C[C@H]3[C@H]1C5 [morphine, reference compound]													effect on respiration rate (C57BL/6J mice [9]): significant respiratory depression; effect on ambulation (spontaneous locomotor activity) (C57BL/6J mice [10]): increased ambulation; antinociception ED50 (95% CI), single administration (C57BL/6J mice [11]; 55 °C, baseline dose response): 2.35 (1.13–5.03) nmol; antinociception ED50 (95% CI), second administration (C57BL/6J mice [11]; given 8 h after a first dose (morphine 3 nmol, 22b 8.7 nmol), 55 °C): 22.5 (8.48–61.9) nmol; rightward shift of antinociceptive dose response (acute tolerance) (C57BL/6J mice [11]; second administration 8 h after first): 9.6 fold; number of excreted fecal boli (C57BL/6J mice [12]; 30 nmol i.c.v.): 1.8 ± 0.8 boli; number of excreted fecal boli (C57BL/6J mice [12]; 100 nmol i.c.v.): 1.5 ± 0.6 boli
N=C(N)Nc1cccc(C(=C2CCN(Cc3ccccc3)CC2)c2ccccc2)c1 [Compound 22a, 1-(3-((1-Benzylpiperidin-4-ylidene)(phenyl)methyl)phenyl)guanidine]	6.45 ± 1.23	91 ± 9.9		2.55e-07 ± 5.77e-08	displayed antinociception in vivo second only to 22b	more moderate, yet still statistically significant, effect	1400 ± 61	2570 ± 423	3.37 ± 0.59	102 ± 21.3	2.56e-07	2.56e-07 ± 2.49e-08	
N=C(N)Nc1cccc(C(=C2CCN(Cc3ccccc3)CC2)c2ccc(O)cc2)c1 [Compound 14a, 1-(3-((1-Benzylpiperidin-4-ylidene)(4-hydroxyphenyl)methyl)phenyl)guanidine]	33.5 ± 4.7	32.3 ± 3.5		4.82e-07 ± 8.16e-08	did not produce statistically significant antinociception	greater anti-NPFF activity	1720 ± 308	> 10000	2.33 ± 0.6	420 ± 54.5	4.55e-07	4.55e-07 ± 6.17e-08	reduction of affinity at DOR relative to 13a (DOR [2]; hydroxyl shifted from 3′- to 4′- position): 4 fold; reduction of affinity at KOR relative to 13a (KOR [3]): 11 fold; EC50 (MOR [4]; [20]): 420 nM
